These results are taken from patent US9708306B2, “Benzimidazole derivatives and preparation process and pharmaceutical uses thereof” (WUHAN LL SCIENCE AND TECHNOLOGY DEVELOPMENT CO., LTD, priority 2015, dated 2017).

The test system of one assay is normal rats. The experiment in a line: Effect on blood pressure of normal rats by single oral administration. In kind it is in vivo, Wistar rats. Conditions: for inhibition in vivo at 0.5 mg/kg / inhibition in vivo at 1 mg/kg / inhibition in vivo at 2 mg/kg / change in vivo at 0.5 mg/kg / change in vivo at 1 mg/kg / change in vivo at 2 mg/kg: Rattus norvegicus, po, single, normal rats; for inhibition in vivo at 0.5 mg/kg / inhibition in vivo at 1 mg/kg / inhibition in vivo at 2 mg/kg: 8 h, read-out: blood pressure reduction at 8 h after the administration; for inhibition in vivo at 0.5 mg/kg / change in vivo at 0.5 mg/kg: 0.5 mg/kg p.o.; for inhibition in vivo at 1 mg/kg / change in vivo at 1 mg/kg: 1.0 mg/kg p.o.; for inhibition in vivo at 2 mg/kg / change in vivo at 2 mg/kg: 2.0 mg/kg p.o.; for change in vivo at 0.5 mg/kg / change in vivo at 1 mg/kg / change in vivo at 2 mg/kg: read-out: variations on heart rate.

Assay [1] deals with renovascular hypertensive rats. The experiment in a line: Effect on reducing blood pressure of renovascular hypertensive rats by single oral administration. The format is in vivo, Wistar rats. Conditions: for change in vivo at 0.5 mg/kg / inhibition in vivo at 0.5 mg/kg / change in vivo at 1 mg/kg / inhibition in vivo at 1 mg/kg / change in vivo at 2 mg/kg / inhibition in vivo at 2 mg/kg: Rattus norvegicus, single oral administration; for change in vivo at 0.5 mg/kg / change in vivo at 1 mg/kg / change in vivo at 2 mg/kg: RHR, read-out: Variations on heart rate; for inhibition in vivo at 0.5 mg/kg / inhibition in vivo at 1 mg/kg / inhibition in vivo at 2 mg/kg: two-kidney one-clip RHR, measured 1-10 h, read-out: Maximum blood pressure reduction.

Values joined by “and” are separate entries in the source; they are usually repeats but may differ in a detail not shown here. Equal entries are not always repeated.

For `CCOc1nc2cccc(C(=O)OCOC(=O)OCc3cn(C)cn3)c2n1Cc1ccc(-c2ccccc2-c2noc(=O)[nH]2)cc1` [QR01031], in the assay on normal rats, the inhibition in vivo at 0.5 mg/kg was 2.9 ± 2.6%, the inhibition in vivo at 1 mg/kg was 4.5 ± 3.8%, the inhibition in vivo at 2 mg/kg turned out to be 4.7 ± 3.1% and the change in vivo at 0.5 mg/kg is -5 ± 5%. In the assay on normal rats, the change in vivo at 1 mg/kg was -4 ± 3% and the change in vivo at 2 mg/kg is -8 ± 4%. Also, in assay [1], the change in vivo at 0.5 mg/kg is -11 ± 5%, the inhibition in vivo at 0.5 mg/kg was determined as 18 ± 3.5%, the change in vivo at 1 mg/kg is -18 ± 6% and the inhibition in vivo at 1 mg/kg turned out to be 25 ± 5.7%. Also, in assay [1], the change in vivo at 2 mg/kg was -17 ± 5% and the inhibition in vivo at 2 mg/kg came out at 32 ± 2.6%.
`CCOc1nc2cccc(C(=O)OCOC(=O)OC(C)C)c2n1Cc1ccc(-c2ccccc2-c2noc(=O)[nH]2)cc1` [QR01002]: in the assay with normal rats, the inhibition in vivo at 0.5 mg/kg came to 5.6 ± 2.3%, the inhibition in vivo at 1 mg/kg was found to be 6.4 ± 2.1%, the inhibition in vivo at 2 mg/kg came to 6.4 ± 2.1% and the change in vivo at 0.5 mg/kg was -4 ± 5%. Besides, in the assay with normal rats, the change in vivo at 1 mg/kg is -5 ± 4% and the change in vivo at 2 mg/kg worked out at 5%. Further, in assay [1], the change in vivo at 0.5 mg/kg is -5 ± 4%, the inhibition in vivo at 0.5 mg/kg stood at 12 ± 2.4%, the change in vivo at 1 mg/kg was -8 ± 3% and the inhibition in vivo at 1 mg/kg came out at 15 ± 1.8%. Moreover, in assay [1], the change in vivo at 2 mg/kg is -6 ± 4% and the inhibition in vivo at 2 mg/kg stood at 19 ± 4.2%.
Regarding `CCOc1nc2cccc(C(=O)OCc3no[n+]([O-])c3C(C)(C)C)c2n1Cc1ccc(-c2ccccc2-c2noc(=O)[nH]2)cc1` [QR01026], in the assay on normal rats, the inhibition in vivo at 0.5 mg/kg was found to be 5.2 ± 3.2%, the inhibition in vivo at 1 mg/kg is 4.3 ± 5.1%, the inhibition in vivo at 2 mg/kg worked out at 3.8 ± 4.5% and the change in vivo at 0.5 mg/kg is -5 ± 8%. Moreover, in the assay with normal rats, the change in vivo at 1 mg/kg is -3 ± 7% and the change in vivo at 2 mg/kg is -4 ± 7%. Also, in assay [1], the change in vivo at 0.5 mg/kg is -8 ± 6%, the inhibition in vivo at 0.5 mg/kg worked out at 16 ± 2.8%, the change in vivo at 1 mg/kg was -10 ± 5% and the inhibition in vivo at 1 mg/kg is 24 ± 6.5%. In addition, in assay [1], the change in vivo at 2 mg/kg was -10 ± 6% and the inhibition in vivo at 2 mg/kg is 31 ± 2.8%.
On to `CCOc1nc2cccc(C(=O)OCCOC(C)=O)c2n1Cc1ccc(-c2ccccc2-c2noc(=O)[nH]2)cc1` [QR01004], for which, in the assay on normal rats, the inhibition in vivo at 0.5 mg/kg was 7.5 ± 1.4%, the inhibition in vivo at 1 mg/kg turned out to be 6.7 ± 1.3%, the inhibition in vivo at 2 mg/kg was determined as 5.7 ± 2.6% and the change in vivo at 0.5 mg/kg was -1 ± 2%. Moreover, in the assay on normal rats, the change in vivo at 1 mg/kg was -2 ± 1% and the change in vivo at 2 mg/kg is 3%. Moreover, in assay [1], the change in vivo at 0.5 mg/kg is 0%, the inhibition in vivo at 0.5 mg/kg was 7 ± 1.2%, the change in vivo at 1 mg/kg is -5 ± 3% and the inhibition in vivo at 1 mg/kg is 10 ± 2.3%. Also, in assay [1], the change in vivo at 2 mg/kg was -3 ± 1% and the inhibition in vivo at 2 mg/kg is 12 ± 3.4%.
As to “1-(6-methypyridazine-2-methoxy-carbonyloxy)ethyl-2-ethoxy-1-{[2′-(5-oxo-4,5-dihydro-1,2,4-oxadiazole)-3-yl)biphenyl-4-yl]methyl}-1H-benzimidazole-7-carboxylate [QR01029]”, in the assay on normal rats (rat, in vivo), the “blood pressure reduction at 8 h after the administration” value was 4.2 ± 3.2% and 5.8 ± 2.2% and 3.4 ± 4.8%. Moreover, in assay [1] (rat, in vivo), the “Maximum blood pressure reduction” value was 12 ± 2.1% and 15 ± 4.3% and 24 ± 5.2%; the “Variations on heart rate” value is −4 ± 3% and −5 ± 2% and −8 ± 2%.
On to `CCOc1nc2cccc(C(=O)OC(OC(=O)OCc3nc(C)c(C)nc3C)C(C)C)c2n1Cc1ccc(-c2ccccc2-c2noc(=O)[nH]2)cc1` (stereo not drawn) [QR01027], for which, in the assay on normal rats, the inhibition in vivo at 0.5 mg/kg amounted to 5.2 ± 3%, the inhibition in vivo at 1 mg/kg came out at 4.8 ± 4.2%, the inhibition in vivo at 2 mg/kg amounted to 2.8 ± 3.9% and the change in vivo at 0.5 mg/kg is -3 ± 4%. Besides, in the assay on normal rats, the change in vivo at 1 mg/kg was 5% and the change in vivo at 2 mg/kg was -3 ± 4%. Besides, in assay [1], the change in vivo at 0.5 mg/kg was -2 ± 3%, the inhibition in vivo at 0.5 mg/kg was determined as 14 ± 2%, the change in vivo at 1 mg/kg was -5 ± 3% and the inhibition in vivo at 1 mg/kg worked out at 18 ± 2.9%. For the same compound, in assay [1], the change in vivo at 2 mg/kg was -6 ± 4% and the inhibition in vivo at 2 mg/kg was determined as 23 ± 4.6%.
`CCOc1nc2cccc(C(=O)OCCO[N+](=O)[O-])c2n1Cc1ccc(-c2ccccc2-c2noc(=O)[nH]2)cc1` [QR01016]: in the assay on normal rats, the inhibition in vivo at 0.5 mg/kg turned out to be 3.6 ± 2.8%, the inhibition in vivo at 1 mg/kg came to 4.2 ± 5.7%, the inhibition in vivo at 2 mg/kg was determined as 5.9 ± 3.2% and the change in vivo at 0.5 mg/kg is 1%. Also, in the assay on normal rats, the change in vivo at 1 mg/kg was determined as 5% and the change in vivo at 2 mg/kg is 3%. Moreover, in assay [1], the change in vivo at 0.5 mg/kg worked out at 1%, the inhibition in vivo at 0.5 mg/kg stood at 11 ± 3.1%, the change in vivo at 1 mg/kg is 5% and the inhibition in vivo at 1 mg/kg was 12 ± 9.2%. Further, in assay [1], the change in vivo at 2 mg/kg is 4% and the inhibition in vivo at 2 mg/kg came to 15 ± 6.5%.
Take `CCOc1nc2cccc(C(=O)OC(OC(=O)OCc3nc(C)c(C)nc3C)C(C)(C)C)c2n1Cc1ccc(-c2ccccc2-c2noc(=O)[nH]2)cc1` (stereo not drawn) [QR01028]: in the assay with normal rats, the inhibition in vivo at 0.5 mg/kg was determined as 1.7 ± 5.3%, the inhibition in vivo at 1 mg/kg came to 3.9 ± 5.2%, the inhibition in vivo at 2 mg/kg came out at 2.5 ± 4.6% and the change in vivo at 0.5 mg/kg was -4 ± 3%. For the same compound, in the assay on normal rats, the change in vivo at 1 mg/kg was -3 ± 4% and the change in vivo at 2 mg/kg is -2 ± 3%. Moreover, in assay [1], the change in vivo at 0.5 mg/kg is -6 ± 2%, the inhibition in vivo at 0.5 mg/kg was 15 ± 0.9%, the change in vivo at 1 mg/kg was -6 ± 4% and the inhibition in vivo at 1 mg/kg came to 18 ± 4.2%. Also, in assay [1], the change in vivo at 2 mg/kg was -12 ± 5% and the inhibition in vivo at 2 mg/kg is 25 ± 3.6%.
For `CCOc1nc2cccc(C(=O)OCc3oc(=O)c(=O)oc3C)c2n1Cc1ccc(-c2ccccc2-c2noc(=O)[nH]2)cc1` [QR01014], in the assay with normal rats, the inhibition in vivo at 0.5 mg/kg was 2.9 ± 3.4%, the inhibition in vivo at 1 mg/kg came to 2.7 ± 3.6%, the inhibition in vivo at 2 mg/kg was 4.6 ± 3.2% and the change in vivo at 0.5 mg/kg is -4 ± 2%. In the assay on normal rats, the change in vivo at 1 mg/kg was -3 ± 3% and the change in vivo at 2 mg/kg was found to be 4%. Further, in assay [1], the change in vivo at 0.5 mg/kg is -2 ± 3%, the inhibition in vivo at 0.5 mg/kg amounted to 16 ± 3.5%, the change in vivo at 1 mg/kg was -4 ± 2% and the inhibition in vivo at 1 mg/kg is 21 ± 4.3%. For the same compound, in assay [1], the change in vivo at 2 mg/kg was -4 ± 5% and the inhibition in vivo at 2 mg/kg worked out at 26 ± 2.1%.
In the case of `CCOc1nc2cccc(C(=O)OC3COC4C(O[N+](=O)[O-])COC34)c2n1Cc1ccc(-c2ccccc2-c2noc(=O)[nH]2)cc1` (stereo not drawn) [QR01007], in the assay on normal rats, the inhibition in vivo at 0.5 mg/kg turned out to be 3.5 ± 3.4%, the inhibition in vivo at 1 mg/kg is 2.5 ± 4.6%, the inhibition in vivo at 2 mg/kg stood at 3.7 ± 4.3% and the change in vivo at 0.5 mg/kg is -3 ± 2%. In addition, in the assay with normal rats, the change in vivo at 1 mg/kg is -7 ± 2% and the change in vivo at 2 mg/kg is 5%. In addition, in assay [1], the change in vivo at 0.5 mg/kg was -3 ± 1%, the inhibition in vivo at 0.5 mg/kg was 10 ± 1.5%, the change in vivo at 1 mg/kg was -8 ± 3% and the inhibition in vivo at 1 mg/kg stood at 12 ± 2%. Further, in assay [1], the change in vivo at 2 mg/kg was -5 ± 2% and the inhibition in vivo at 2 mg/kg is 18 ± 3.5%.
